Patent publication EP0246786A1, “N-1 subsituted sulfonylaminocarbonyl, C-4 substituted monobactams” (THE UPJOHN COMPANY, priority 1986, dated 1987)
In brackets after ≈: the same amount, converted by molar mass. Structures can show the parent of a compound that is named as a salt. Where two headings read alike, the source gives them in different places.

Assays:
Assay in all cases: MIC by agar dilution (in vitro antimicrobial testing)
Assay type in all cases: cell-based
Ps. aeruginosa = conditions: Pseudomonas aeruginosa, 20 h, 35°C, read-out: Minimum Inhibitory Concentration
Experimental: (§1) Compounds of the invention are tested for in vitro antimicrobial activity using standard testing procedures such as the determination of minimum inhibitory concentration (MIC) by agar dilution as described in "Methods for Dilution Antimicrobial Susceptibility Tests for Bacteria That Grow Aerobically" (MF-T) Published January 1983 by the National Committee for Clinical Laboratory Standards, 771 East Lancaster Avenue, Villanova, PA 19084. Briefly, MIC values are determined in unsupple- mented Mueller Hinton Agar (MHA). The compounds tested are diluted serially into molten MHA at 47°C. The agar is poured into petri dishes and allowed to harden. The various bacteria used for testing are grown overnight on MHA at 35°C and transferred to Tryptiease Soy Broth (TSB) until a turbidity of 0.5 McFarland standard is obtained. The bacteria are diluted one to twenty in TSB and inoculated on the plates (1 µl using a Steers replicator).

K. oxytoca = conditions: Klebsiella oxytoca, read-out: Minimum Inhibitory Concentration
Experimental: as §1

K.pneumoniae = conditions: Klebsiella pneumoniae, read-out: Minimum Inhibitory Concentration
Experimental: as §1

E. coli = conditions: Escherichia coli, 20 h, 35°C, read-out: Minimum Inhibitory Concentration
Experimental: as §1

[1] = Ps. aeruginosa Culture No. 231, Mueller Hinton Agar
[2] = Ps. aeruginosa Culture No. 6432, Mueller Hinton Agar
[3] = Ps. aeruginosa Culture No. 9191, Mueller Hinton Agar
[4] = E. coli Culture No. 9379, Mueller Hinton Agar
[5] = E. coli Culture No. 9380, Mueller Hinton Agar
[6] = E. coli Culture No. 9451, Mueller Hinton Agar

| Compound | MIC (Ps. aeruginosa; [1]) | MIC (Ps. aeruginosa; [2]) | MIC (Ps. aeruginosa; [3]) | MIC (K. oxytoca; K. oxytoca Culture No. 9384, Mueller Hinton Agar, 35°C, 20 hours) | MIC (K.pneumoniae; K.pneumoniae Culture No. 58, Mueller Hinton Agar, 35°C, 20 hours) | MIC (E. coli; [4]) | MIC (E. coli; [5]) | MIC (E. coli; [6]) | MIC (K. oxytoca; 20 h) | MIC (K.pneumoniae; 20 h) |
| --- | --- | --- | --- | --- | --- | --- | --- | --- | --- | --- |
| COC(=O)OC[C@@H]1[C@H](NC(=O)/C(=N\OCC(=O)O)c2csc(N)n2)C(=O)N1C(=O)NS(=O)(=O)N1CCN(NC(=O)c2cc(=O)c(O)c[nH]2)C1=O (racemic) [Compound A, cis-(±)-3-[2-(2-Amino-4-thiazolyl)-(Z)-2-(carboxy-methoxyimino)acetamido]-1-[(5-hydroxy-4-pyridon-2-yl)carbonylamino-1-(2-imidazolidone-3-yl)sulfonylaminocarbonyl]-4-[(methoxycarbonyl)-oxymethyl]-2-azetidinone, dipotassium salt] | 4 µg/mL | 1 µg/mL | 4 µg/mL | 0.06 µg/mL | 1 µg/mL | ≤ 0.015 µg/mL | ≤ 0.015 µg/mL | ≤ 0.015 µg/mL | – | – |
| CC1C(NC(=O)C(=NOC(C)(C)C(=O)O)c2csc(N)n2)C(=O)N1S(=O)(=O)O (stereo not shown) [Compound B, 2-[[[1-(2-amino-4-thiazolyl)-2-[(2-methyl-4-oxo-1-sulfo-3-azetidinyl)amino]-2-oxoethylidene]amino]oxy]-2-methylpropanoic acid] | 8 µg/mL (≈ 18.4 µM) | 8 µg/mL (≈ 18.4 µM) | 2 µg/mL (≈ 4.59 µM) | – | – | 0.03 µg/mL (≈ 0.0689 µM) | 0.06 µg/mL (≈ 0.138 µM) | 0.06 µg/mL (≈ 0.138 µM) | 0.03 µg/mL (≈ 0.0689 µM) | 0.03 µg/mL (≈ 0.0689 µM) |
